Experimental findings from US20050079526A1, “Methods and apparatuses for characterizing refolding and aggregation of biological molecules” (Affinium Pharmaceuticals, Inc., priority 2002, published 2005) are described below.

In assay [1] the test system is the protein. Kind of assay: extent of unfolding of a protein measured by fluorescence versus time after temperature jump to 55° C. (rate of unfolding ku). It counts as binding. As to conditions: fluorescence versus time at 55° C.; 5% ethanol; 10% glycerol; AND^+; compared with control solution; FIG. 6. The method, then: Multiple identical protein solutions were arranged in two-dimensional arrays of reservoirs which were incubated at different temperatures. These samples were alternatively illuminated with UV light and monochromatic red light. The fluorescence emitted and the light scattered at 90° were measured from the top of the arrangement. The fluorescence emitted and the light scattered intensity data were collected at intervals of time of incubation for all the temperatures simultaneously. In another example, the protein was incubated in 5% ethanol; 10% glycerol, AND^+ or a control solution and the extent of unfolding was measured at 55° C. A plots of fluorescence at the given temperature versus time was automatically built for all the samples, and the rate of unfolding ku was obtained from the fitted exponential grow portion of the curves for the proteins jumped to 55° C.

The test system of assay [2] is refolded Gaf domain of PDE10. The assay is described as follows: thermal aggregation (light scattering) of refolded protein, temperature of aggregation (Tag) with ligands. It counts as binding. As to conditions: refolded Gaf domain of PDE10 in presence of ligand; light scattering versus temperature; FIG. 10. The method, then: The fluorescence emitted and the light scattered at 90° were measured from the top of the arrangement. The fluorescence emitted and the light scattered intensity data were collected at intervals of time of incubation for all the temperatures simultaneously.

On to `NC(=O)c1ccc[n+]([C@@H]2O[C@H](COP(=O)([O-])OP(=O)(O)OC[C@H]3O[C@@H](n4cnc5c(N)ncnc54)[C@H](O)[C@@H]3O)[C@@H](O)[C@H]2O)c1` [AND^+], for which the “effect on the stability of the protein (unfolding, ku)” value (“effect … (unfolding, ku)” below) in assay [1] is recorded as “strongest stabilizing effect”. For `OCC(O)CO` [Glycerol, glycerol], the “effect … (unfolding, ku)” value in assay [1] is listed as “stabilizing effect”. Regarding `Nc1nc2c(ncn2[C@@H]2O[C@@H]3COP(=O)(O)O[C@H]3[C@H]2O)c(=O)[nH]1` [cGMP], the “change of temperature of aggregation (Tag)” value in assay [2] was “increased the Tag”. As for `CCO` [ethanol], the “effect … (unfolding, ku)” value in assay [1] is reported as “destabilizing effect or no effect at all”.
